According to patent publication US10294202B2, “Pyrrolidinones as herbicides” (FMC Corporation, priority 2013, dated 2019):

Assays:
barnyardgrass [1] = assay: Test A pre-/postemergence herbicide test; type: in vivo, Echinochloa crus-galli
Method in brief: (§1)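 Seeds sown in loam soil/sand blend received a preemergence directed soil spray of test chemical in non-phytotoxic solvent with surfactant; postemergence plants (2–10 cm, one- to two-leaf stage) were sprayed with the same formulation. After about 10 days in greenhouse, injury was rated visually versus untreated controls, 0 (no effect) to 100 (complete control).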

kochia = assay: Test A pre-/postemergence herbicide test; type: in vivo, Kochia scoparia
Method in brief: as §1

ragweed = assay: Test A pre-/postemergence herbicide test; type: in vivo, Ambrosia elatior
Method in brief: as §1

ryegrass, Italian = assay: Test A pre-/postemergence herbicide test; type: in vivo, Lolium multiflorum
Method in brief: as §1

giant foxtail = assay: Test A pre-/postemergence herbicide test; type: in vivo, Setaria faberii
Method in brief: as §1

pigweed = assay: Test A pre-/postemergence herbicide test; type: in vivo, Amaranthus retroflexus
Method in brief: as §1

wheat = assay: Test A pre-/postemergence herbicide test; type: in vivo, Triticum aestivum; conditions: Postemergence
Method in brief: as §1

corn = assay: Test A pre-/postemergence herbicide test; type: in vivo, Zea mays; conditions: Postemergence
Method in brief: as §1

blackgrass = assay: Test A postemergence herbicide test; type: in vivo, Alopecurus myosuroides
Method in brief: (§2)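 Ratings compare treated with untreated plants roughly 10 days after a postemergence application made at the one- to two-leaf stage. Scoring uses 0–100, where 0 means no effect and 100 complete control.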

galium = assay: Test A postemergence herbicide test; type: in vivo, Galium aparine
Method in brief: as §2

rice = assay: Test B flooded paddy test; type: in vivo, Oryza sativa; conditions: Flood, scale of 0 to 100 where 0 is no effect and 100 is complete control
Method in brief: (§3)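 Plants grown to 2-leaf stage; pots flooded 3 cm above soil and compound applied directly into paddy water, depth held throughout. Visual rating against untreated controls after 13 to 15 days in greenhouse, 0 (no effect) to 100 (complete control).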

sedge, umbrella = assay: Test B flooded paddy test; type: in vivo, Cyperus difformis; conditions: Flood, scale of 0 to 100 where 0 is no effect and 100 is complete control
Method in brief: as §3

ducksalad = assay: Test B flooded paddy test; type: in vivo, Heteranthera limosa; conditions: Flood, scale of 0 to 100 where 0 is no effect and 100 is complete control
Method in brief: as §3

barnyardgrass [2] = assay: Test B flooded paddy test; type: in vivo, Echinochloa crus-galli; conditions: Flood, scale of 0 to 100 where 0 is no effect and 100 is complete control
Method in brief: as §3

[3] = 125 g ai/ha, visual rating, 0 to 100 scale, 0 no effect, 100 complete control, approximately 10 days, preemergence
[4] = Postemergence, 125 g ai/ha, 0 to 100 scale, 0 is no effect, 100 is complete control
[5] = preemergence, 500 g ai/ha, 0 to 100 scale, 0 is no effect and 100 is complete control
[6] = 125 g ai/ha, 0 to 100 scale, 0 is no effect, 100 is complete control
[7] = Postemergence, 125 g ai/ha, 0 to 100 scale, 0 no effect, 100 complete control
[8] = Postemergence, 500 g ai/ha, 0 to 100 scale (0 no effect, 100 complete control)
[9] = preemergence, 500 g ai/ha, 0 to 100 scale
[10] = 125 g ai/ha, 0 to 100 scale, 0 no effect, 100 complete control
[11] = 500 g ai/ha, 0 to 100 scale (0 no effect, 100 complete control)
[12] = Postemergence, 125 g ai/ha, visual rating on 0 to 100 scale (0 no effect, 100 complete control), approx. 10 days
[13] = Preemergence, 125 g ai/ha, 0 to 100 scale where 0 is no effect and 100 is complete control
[14] = Preemergence, 500 g ai/ha, visual rating on 0 to 100 scale (0 no effect, 100 complete control)
[15] = 125 g ai/ha, visual rating on 0 to 100 scale (0 no effect, 100 complete control), approx. 10 days

COc1ccc(C2CNC(=O)C2C(=O)Nc2cccc(F)c2F)cc1C(F)(F)F (stereo not drawn) [Compound 234]
75: Plant response rating, Barnyardgrass (barnyardgrass [2]; 1000 g ai/ha)
90: Barnyardgrass plant response rating (0 to 100 scale, 0 is no effect, 100 is complete control) (barnyardgrass [1]; Postemergence, 500 g ai/ha) | Plant response rating, Barnyardgrass (barnyardgrass [1]; [5]) | Plant response rating, Foxtail, Giant (giant foxtail; [5])
30: Kochia plant response rating (0 to 100 scale, 0 is no effect, 100 is complete control) (kochia; Postemergence, 500 g ai/ha) | Plant response rating, Ryegrass, Italian (ryegrass, Italian; [3]) | Ryegrass, Italian plant response rating (0 to 100 scale, 0 is no effect, 100 is complete control) (ryegrass, Italian; Postemergence, 500 g ai/ha) | Plant response rating, Ryegrass, Italian (ryegrass, Italian; [5]) | Blackgrass plant response rating (0 to 100 scale, 0 is no effect, 100 is complete control) (blackgrass; 500 g ai/ha) | Plant response rating, Galium (galium; [6])
70: Plant response rating, Foxtail, Giant (giant foxtail; [3])
50: Plant response rating, Kochia (kochia; [5]) | Galium plant response rating (0 to 100 scale, 0 is no effect, 100 is complete control) (galium; 500 g ai/ha)
60: Plant response rating, Barnyardgrass (barnyardgrass [1]; [3]) | Plant response rating, Barnyardgrass (barnyardgrass [1]; [4]) | Corn plant response rating (0 to 100 scale, 0 is no effect, 100 is complete control) (corn; 500 g ai/ha)
40: Plant response rating, Foxtail, Giant (giant foxtail; [4]) | Wheat plant response rating (0 to 100 scale, 0 is no effect, 100 is complete control) (wheat; 500 g ai/ha)
0: Plant response rating, Kochia (kochia; [4]) | Plant response rating, Ragweed (ragweed; [3]) | Plant response rating, Ragweed (ragweed; [4]) | Ragweed plant response rating (0 to 100 scale, 0 is no effect, 100 is complete control) (ragweed; Postemergence, 500 g ai/ha) | Plant response rating, Pigweed (pigweed; [3]) | Plant response rating, Pigweed (pigweed; [4]) | Pigweed plant response rating (0 to 100 scale, 0 is no effect, 100 is complete control) (pigweed; Postemergence, 500 g ai/ha) | Plant response rating, Wheat (wheat; [6]) | Plant response rating, Corn (corn; [6]) | Plant response rating, Blackgrass (blackgrass; [6]) | Plant response rating, Rice (rice; 1000 g ai/ha) | Plant response rating, Sedge, Umbrella (sedge, umbrella; 1000 g ai/ha)
20: Plant response rating, Kochia (kochia; [3]) | Plant response rating, Ragweed (ragweed; [5]) | Plant response rating, Ryegrass, Italian (ryegrass, Italian; [4]) | Plant response rating, Pigweed (pigweed; [5])
85: Plant response rating, Ducksalad (ducksalad; 1000 g ai/ha)
80: Foxtail, Giant plant response rating (0 to 100 scale, 0 is no effect, 100 is complete control) (giant foxtail; Postemergence, 500 g ai/ha)

O=C1NCC(c2cccc(OC(F)(F)C(F)F)c2)C1C(=O)Nc1ccc(F)cc1F (racemic) [Compound 122]
15: Plant response rating, Rice (rice; 500 g ai/ha)
50: Plant response rating, Pigweed (pigweed; [3]) | Plant response rating, Wheat (wheat; [10]) | Plant response rating, Blackgrass (blackgrass; [10])
40: Ryegrass, Italian plant response rating (0 to 100 scale, 0 is no effect, 100 is complete control) (ryegrass, Italian; Postemergence, 500 g ai/ha) | Plant response rating, Corn (corn; [10])
60: Plant response rating, Kochia (kochia; [3]) | Plant response rating, Ragweed (ragweed; [9]) | Plant response rating, Pigweed (pigweed; [7]) | Wheat plant response rating (0 to 100 scale, 0 is no effect, 100 is complete control) (wheat; 500 g ai/ha) | Plant response rating, Corn (corn; [11])
0: Plant response rating, Ragweed (ragweed; [3]) | Plant response rating, Ryegrass, Italian (ryegrass, Italian; [3]) | Plant response rating, Ryegrass, Italian (ryegrass, Italian; [7]) | Plant response rating, Ryegrass, Italian (ryegrass, Italian; [9]) | Plant response rating, Sedge, Umbrella (sedge, umbrella; 500 g ai/ha)
90: Plant response rating, Barnyardgrass (barnyardgrass [1]; preemergence, 500 g ai/ha, 0 to 100 scale (0 no effect, 100 complete control)) | Plant response rating, Foxtail, Giant (giant foxtail; [3]) | Plant response rating, Foxtail, Giant (giant foxtail; [9])
30: Plant response rating, Ragweed (ragweed; [7])
65: Plant response rating, Barnyardgrass (barnyardgrass [2]; 500 g ai/ha)
100: Plant response rating, Ducksalad (ducksalad; 500 g ai/ha)
70: Plant response rating, Barnyardgrass (barnyardgrass [1]; [7]) | Plant response rating, Kochia (kochia; [7]) | Kochia plant response rating (0 to 100 scale, 0 is no effect, 100 is complete control) (kochia; Postemergence, 500 g ai/ha) | Plant response rating, Kochia (kochia; [9]) | Ragweed plant response rating (0 to 100 scale, 0 is no effect, 100 is complete control) (ragweed; Postemergence, 500 g ai/ha) | Plant response rating, Blackgrass (blackgrass; [11]) | Plant response rating, Galium (galium; [10])
80: Plant response rating, Barnyardgrass (barnyardgrass [1]; [3]) | Plant response rating, Barnyardgrass (barnyardgrass [1]; [8]) | Plant response rating, Foxtail, Giant (giant foxtail; [7]) | Foxtail, Giant plant response rating (0 to 100 scale, 0 is no effect, 100 is complete control) (giant foxtail; Postemergence, 500 g ai/ha) | Pigweed plant response rating (0 to 100 scale, 0 is no effect, 100 is complete control) (pigweed; Postemergence, 500 g ai/ha) | Plant response rating, Pigweed (pigweed; [9]) | Galium plant response rating (0 to 100 scale, 0 is no effect, 100 is complete control) (galium; 500 g ai/ha)

O=C1NCC(c2ccc(Cl)s2)C1C(=O)Nc1cccc(F)c1F (stereo not drawn) [Compound 294]
30: Plant response rating, Kochia (kochia; [12]) | Ryegrass, Italian plant response rating (ryegrass, Italian; [14]) | Plant response rating, Foxtail, Giant (giant foxtail; [12]) | Plant response rating, Blackgrass (blackgrass; [11]) | Plant response rating, Galium (galium; [11])
40: Plant response rating, Kochia (kochia; [13])
80: Plant response rating, Foxtail, Giant (giant foxtail; [8])
70: Plant response rating, Barnyardgrass (barnyardgrass [1]; [13]) | Plant response rating, Foxtail, Giant (giant foxtail; [13])
20: Plant response rating, Ragweed (ragweed; [8]) | Plant response rating, Ryegrass, Italian (ryegrass, Italian; [8]) | Plant response rating, Pigweed (pigweed; [5]) | Plant response rating, Wheat (wheat; [15]) | Plant response rating, Wheat (wheat; [11]) | Plant response rating, Blackgrass (blackgrass; [15]) | Plant response rating, Barnyardgrass (barnyardgrass [2]; 500 g ai/ha)
98: Plant response rating, Ducksalad (ducksalad; 500 g ai/ha)
60: Plant response rating, Barnyardgrass (barnyardgrass [1]; [12])
50: Plant response rating, Kochia (kochia; [8])
0: Plant response rating, Ragweed (ragweed; [12]) | Plant response rating, Ragweed (ragweed; [13]) | Plant response rating, Ragweed (ragweed; [5]) | Plant response rating, Ryegrass, Italian (ryegrass, Italian; [12]) | Plant response rating, Ryegrass, Italian (ryegrass, Italian; [13]) | Plant response rating, Pigweed (pigweed; [12]) | Plant response rating, Pigweed (pigweed; [8]) | Plant response rating, Pigweed (pigweed; [13]) | Plant response rating, Corn (corn; [15]) | Plant response rating, Corn (corn; [11]) | Plant response rating, Galium (galium; [15]) | Plant response rating, Rice (rice; 500 g ai/ha) | Plant response rating, Sedge, Umbrella (sedge, umbrella; 500 g ai/ha)
90: Plant response rating, Barnyardgrass (barnyardgrass [1]; [8]) | Plant response rating, Barnyardgrass (barnyardgrass [1]; [5]) | Plant response rating, Kochia (kochia; [5]) | Plant response rating, Foxtail, Giant (giant foxtail; [5])

CC1(c2ccccc2)CNC(=O)C1C(=O)Nc1ccccc1F (stereo not drawn) [Compound 301]
0: Plant response rating, Barnyardgrass (barnyardgrass [1]; [12]) | Plant response rating, Barnyardgrass (barnyardgrass [1]; [8]) | Plant response rating, Barnyardgrass (barnyardgrass [1]; [13]) | Barnyardgrass plant response rating (barnyardgrass [1]; [14]) | Plant response rating, Kochia (kochia; [12]) | Plant response rating, Kochia (kochia; [8]) | Plant response rating, Kochia (kochia; [13]) | Kochia plant response rating (kochia; [14]) | Plant response rating, Ragweed (ragweed; [12]) | Plant response rating, Ragweed (ragweed; [8]) | Plant response rating, Ragweed (ragweed; [13]) | Ragweed plant response rating (ragweed; [14]) | Plant response rating, Ryegrass, Italian (ryegrass, Italian; [12]) | Plant response rating, Ryegrass, Italian (ryegrass, Italian; [8]) | Plant response rating, Ryegrass, Italian (ryegrass, Italian; [13]) | Ryegrass, Italian plant response rating (ryegrass, Italian; [14]) | Plant response rating, Foxtail, Giant (giant foxtail; [12]) | Plant response rating, Foxtail, Giant (giant foxtail; [8]) | Plant response rating, Foxtail, Giant (giant foxtail; [13]) | Foxtail, Giant plant response rating (giant foxtail; [14]) | Plant response rating, Pigweed (pigweed; [12]) | Plant response rating, Pigweed (pigweed; [8]) | Plant response rating, Pigweed (pigweed; [13]) | Pigweed plant response rating (pigweed; [14]) | Plant response rating, Wheat (wheat; [15]) | Plant response rating, Wheat (wheat; [11]) | Plant response rating, Corn (corn; [15]) | Plant response rating, Corn (corn; [11]) | Plant response rating, Blackgrass (blackgrass; [15]) | Plant response rating, Blackgrass (blackgrass; [11]) | Plant response rating, Galium (galium; [15]) | Plant response rating, Galium (galium; [11]) | Plant response rating, Rice (rice; 500 g ai/ha) | Plant response rating, Sedge, Umbrella (sedge, umbrella; 500 g ai/ha) | Plant response rating, Ducksalad (ducksalad; 500 g ai/ha) | Plant response rating, Barnyardgrass (barnyardgrass [2]; 500 g ai/ha)
